Reference: ChEMBL document CHEMBL1201862, “PubChem BioAssay data set” (2004)
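1) Cells in 96-well plates. 2) Compound, 48 h, 5 concentrations. 3) Linear interpolation between surrounding doses. 4) Unreached endpoint = highest concentration. At the GI50, growth is halved.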 The source made the active and inactive calls. No stated cut-off is given here; in the data, active = GI50 up to about 1.1 µM and inactive = higher.

Assays:
Test in all cases: NCI-60 cell line screen, 48 h
A549 = test system: A549
ACHN = test system: ACHN
DMS-114 = test system: DMS-114
HCC 2998 = test system: HCC 2998
HCT-116 = test system: HCT-116
HCT-15 = test system: HCT-15
HOP-92 = test system: HOP-92
K562 = test system: K562
KM-20L2 = test system: KM-20L2
M14 = test system: M14
Malme-3M = test system: Malme-3M
NCI-H522 = test system: NCI-H522
OVCAR-5 = test system: OVCAR-5
SK-MEL-28 = test system: SK-MEL-28
SK-MEL-2 = test system: SK-MEL-2
SNB-19 = test system: SNB-19
SNB-78 = test system: SNB-78
U-251 = test system: U-251
UACC-257 = test system: UACC-257

Row | SMILES | GI50 (A549) | GI50 (ACHN) | GI50 (DMS-114) | GI50 (HCC 2998) | GI50 (HCT-116) | GI50 (HCT-15) | GI50 (HOP-92) | GI50 (K562) | GI50 (KM-20L2) | GI50 (M14) | GI50 (Malme-3M) | GI50 (NCI-H522) | GI50 (OVCAR-5) | GI50 (SK-MEL-28) | GI50 (SK-MEL-2) | GI50 (SNB-19) | GI50 (SNB-78) | GI50 (U-251) | GI50 (UACC-257)
1 | COC1(OC)CC2C(=O)N(Cc3ccccc3)C1C(S(=O)(=O)c1ccccc1)C2C(C)S(=O)(=O)c1ccccc1 (stereo unspecified) | > 100 µM (inactive) | > 100 µM (inactive) | 75.5 µM (inactive) | > 100 µM (inactive) | > 100 µM (inactive) | > 100 µM | 17 µM (inactive) | > 100 µM (inactive) | > 100 µM (inactive) | > 100 µM (inactive) | > 100 µM (inactive) | > 100 µM (inactive) | > 100 µM (inactive) | > 100 µM (inactive) | > 100 µM (inactive) | > 100 µM (inactive) | > 100 µM (inactive) | > 100 µM (inactive) | > 100 µM (inactive)
2 | CN(C)C(=N)NC(=S)N(C)C | > 100 µM (inactive) | > 100 µM (inactive) | > 100 µM (inactive) | > 100 µM (inactive) | > 100 µM (inactive) | > 100 µM | > 100 µM (inactive) | > 100 µM (inactive) | > 100 µM (inactive) | > 100 µM (inactive) | > 100 µM (inactive) | > 100 µM (inactive) | > 100 µM (inactive) | > 100 µM (inactive) | > 100 µM (inactive) | > 100 µM (inactive) | > 100 µM (inactive) | > 100 µM (inactive) | > 100 µM (inactive)
3 | N#COc1ccc(Oc2ccc(OC#N)cc2)cc1 | > 100 µM (inactive) | 35.5 µM (inactive) | 32.1 µM (inactive) | > 100 µM (inactive) | > 100 µM (inactive) | 42.8 µM | > 100 µM (inactive) | 36.7 µM (inactive) | > 100 µM (inactive) | > 100 µM (inactive) | > 100 µM (inactive) | 43.4 µM (inactive) | > 100 µM (inactive) | > 100 µM (inactive) | > 100 µM (inactive) | > 100 µM (inactive) | > 100 µM (inactive) | 85.7 µM (inactive) | > 100 µM (inactive)
4 | CC(=O)OC1CC[C@@]2(C)C(CC(OC3OC(CO)C(O)C(O)C3O)[C@]3(C)C2CCC24CC23CC[C@H]4C(C)CC(O)[C@@H](O)C(C)(C)O)C1(C)C (stereo partly specified) | > 50 µM (inactive) | > 50 µM (inactive) | 10.8 µM (inactive) | 11.7 µM (inactive) | 9.91 µM (inactive) | > 50 µM | 10 µM (inactive) | 15.4 µM (inactive) | 19.9 µM (inactive) | 12 µM (inactive) | 9.51 µM (inactive) | 8.63 µM (inactive) | > 50 µM (inactive) | 9.77 µM (inactive) | 10.3 µM (inactive) | 14.2 µM (inactive) | > 5 µM (inactive) | 9.71 µM (inactive) | 11.7 µM (inactive)
